What all share (format): in vivo
The test system of assay [1] is Abutilon theophrasti (ABUTH). Put plainly: Post-emergence glasshouse herbicide test, percentage damage to plant. The conditions noted are these: POST Application, 125 g/ha, evaluated after 14 days. On the procedure:
(§1) Seeds of a variety of test species were sown in standard soil in pots (Amaranthus retoflexus (AMARE), Abutilon theophrasti (ABUTH), Digitaria sanguinalis (DIGSA), Setaria faberi (SETFA) and Zea mays (ZEAMX). After cultivation for 10 days under controlled conditions in a glasshouse (at 24/16° C., day/night; 14 hours light; 65% humidity), the plants were sprayed with an aqueous spray solution derived from the formulation of the technical active ingredient in 0.6 ml acetone and 45 ml formulation solution containing 10.6% Emulsogen EL (Registry number 61791-12-6), 42.2% N-methyl pyrrolidone, 42.2% dipropylene glycol monomethyl ether (CAS RN 34590-94-8) and 0.2% X-77 (CAS RN 11097-66-8). The test plants were then grown in a glasshouse under controlled conditions in a glasshouse (at 24/16° C., day/night; 14 hours light; 65% humidity) and watered twice daily. After 14 days the test is evaluated for the percentage damage caused to the plant. The biological activities are shown in the following table on a five point scale (5=80-100%; 4=60-79%; 3=40-59%; 2=20-39%; 1=0-19%).

Assay [2] deals with Amaranthus retoflexus (AMARE). Described as above. The settings on record: POST Application, 125 g/ha, evaluated after 14 days. As to the method: as §1
Assay [3] concerns Digitaria sanguinalis (DIGSA). The description is as above. The settings on record: POST Application, 125 g/ha, evaluated after 14 days. On the procedure: as §1
The subject of another assay is Setaria faberi (SETFA). The assay is described as above. The settings on record: POST Application, 125 g/ha, evaluated after 14 days. On the procedure:
as §1

A further assay has as its system Zea mays (ZEAMX). The experiment in a line: Post-emergence glasshouse herbicide test, percentage damage to crop plant. The settings on record: POST Application, 125 g/ha, evaluated after 14 days; crop (corn). On the procedure: as §1

The values that follow come from patent US10881106B2, “Herbicidal pyridazinone compounds” (SYNGENTA PARTICIPATIONS AG, priority 2016, dated 2021).

Each structure is given as a SMILES string.

For `Cc1cc(C(=O)C2=C([O-])CCCC2=O)c(=O)n(CCOC(=O)N2CCOCC2)n1.[Na+]` [Compound 1.025], the “ABUTH percentage damage caused to the plant (five point scale)” value (shortened to “ABUTH percentage damage caused”) in assay [1] is 5 (5=80-100%). In addition, in assay [2], the “AMARE percentage damage caused to the plant (five point scale)” value (from here on “AMARE percentage damage caused”) is 5 (5=80-100%). Also, in assay [3], the “DIGSA percentage damage caused to the plant (five point scale)” value (“DIGSA percentage damage caused” for short) was 5 (5=80-100%). Also, the “SETFA percentage damage caused to the plant (five point scale)” value (“SETFA percentage damage caused” for short) with Setaria faberi (SETFA) is given as 5 (5=80-100%). Moreover, the “ZEAMX percentage damage caused to the plant (five point scale)” value (“ZEAMX percentage damage caused” for short) in the assay on Zea mays (ZEAMX) is reported as 1 (1=0-19%).

Consider `Cc1cc(C(=O)C2=C(O)CCCC2=O)c(=O)n(CCOC(=O)N(C)C)n1` [Compound 1.009], for which the “ABUTH percentage damage caused” value in assay [1] was 5 (5=80-100%). In assay [2], the “AMARE percentage damage caused” value was 5 (5=80-100%). Besides, in assay [3], the “DIGSA percentage damage caused” value is 5 (5=80-100%). The “SETFA percentage damage caused” value with Setaria faberi (SETFA) is 4 (4=60-79%). Also, in the assay on Zea mays (ZEAMX), the “ZEAMX percentage damage caused” value is listed as 1 (1=0-19%).

Regarding `Cc1cc(C(=O)C2=C([O-])CCCC2=O)c(=O)n(CC(F)(F)C(=O)N(C)C)n1.[Na+]` [Compound 1.018], in assay [1], the “ABUTH percentage damage caused” value is listed as 5 (5=80-100%). For the same compound, the “AMARE percentage damage caused” value in assay [2] is reported as 5 (5=80-100%). In assay [3], the “DIGSA percentage damage caused” value is 5 (5=80-100%). Further, in the assay on Setaria faberi (SETFA), the “SETFA percentage damage caused” value is 5 (5=80-100%). For the same compound, the “ZEAMX percentage damage caused” value with Zea mays (ZEAMX) was 1 (1=0-19%).

In the case of `Cc1cc(C(=O)C2=C(O)CCCC2=O)c(=O)n(CC(=O)N(C)C)n1` [Compound 1.001], the “ABUTH percentage damage caused” value in assay [1] is given as 5 (5=80-100%). Also, in assay [2], the “AMARE percentage damage caused” value was 5 (5=80-100%). Further, the “DIGSA percentage damage caused” value in assay [3] was 5 (5=80-100%). For the same compound, the “SETFA percentage damage caused” value in the assay with Setaria faberi (SETFA) is recorded as 5 (5=80-100%). For the same compound, in the assay with Zea mays (ZEAMX), the “ZEAMX percentage damage caused” value is on record as 1 (1=0-19%).

On to `CNC(=O)CCn1nc(C)cc(C(=O)C2=C(O)CCCC2=O)c1=O` [Compound 1.006], for which the “ABUTH percentage damage caused” value in assay [1] was 4 (4=60-79%). In assay [2], the “AMARE percentage damage caused” value is 5 (5=80-100%). Moreover, the “DIGSA percentage damage caused” value in assay [3] is on record as 5 (5=80-100%). Moreover, in the assay on Setaria faberi (SETFA), the “SETFA percentage damage caused” value is 5 (5=80-100%). For the same compound, the “ZEAMX percentage damage caused” value with Zea mays (ZEAMX) is listed as 1 (1=0-19%).

For the compound `Cc1cc(C(=O)C2=C([O-])CCCC2=O)c(=O)n(CCOC(=O)N2CCCC2)n1.[Na+]` [Compound 1.024], the “ABUTH percentage damage caused” value in assay [1] is reported as 2 (2=20-39%). The “AMARE percentage damage caused” value in assay [2] is listed as 4 (4=60-79%). Further, in assay [3], the “DIGSA percentage damage caused” value is 5 (5=80-100%). For the same compound, in the assay on Setaria faberi (SETFA), the “SETFA percentage damage caused” value is 5 (5=80-100%). In the assay on Zea mays (ZEAMX), the “ZEAMX percentage damage caused” value is recorded as 1 (1=0-19%).

As to `Cc1cc(C(=O)C2=C([O-])CCCC2=O)c(=O)n(CCOC(=O)N(C)CC(F)(F)F)n1.[Na+]` [Compound 1.023], in assay [1], the “ABUTH percentage damage caused” value is listed as 3 (3=40-59%). The “AMARE percentage damage caused” value in assay [2] is listed as 3 (3=40-59%). In addition, in assay [3], the “DIGSA percentage damage caused” value is 5 (5=80-100%). In the assay with Setaria faberi (SETFA), the “SETFA percentage damage caused” value is given as 5 (5=80-100%). Moreover, the “ZEAMX percentage damage caused” value in the assay on Zea mays (ZEAMX) is recorded as 1 (1=0-19%).

Take `CN(C)C(=O)CCn1nc(C2CC2)cc(C(=O)C2=C([O-])CCCC2=O)c1=O.[Na+]` [Compound 1.016]: the “ABUTH percentage damage caused” value in assay [1] is recorded as 5 (5=80-100%). Also, in assay [2], the “AMARE percentage damage caused” value is 5 (5=80-100%). Moreover, in assay [3], the “DIGSA percentage damage caused” value is 5 (5=80-100%). Besides, in the assay on Setaria faberi (SETFA), the “SETFA percentage damage caused” value is 4 (4=60-79%). The “ZEAMX percentage damage caused” value in the assay on Zea mays (ZEAMX) is on record as 1 (1=0-19%).

For `CCN(CC)C(=O)CCn1nc(C)cc(C(=O)C2=C(O)CCCC2=O)c1=O` [Compound 1.007], in assay [1], the “ABUTH percentage damage caused” value is listed as 5 (5=80-100%). In addition, the “AMARE percentage damage caused” value in assay [2] is given as 5 (5=80-100%). Further, in assay [3], the “DIGSA percentage damage caused” value is on record as 5 (5=80-100%). Also, the “SETFA percentage damage caused” value in the assay with Setaria faberi (SETFA) is recorded as 5 (5=80-100%). For the same compound, the “ZEAMX percentage damage caused” value with Zea mays (ZEAMX) is listed as 1 (1=0-19%).
